This note sets out measurements from PMC10676384, “Core-dependent post-translational modifications guide the biosynthesis of a new class of hypermodified peptides” (Nature Communications, 2023).

The test system of the assay is CcaF. The experiment in a line: In vitro CcaF leader peptide removal assay. Format: biochemical, Chryseobacterium carnipullorum DSM25581. Conditions: substrate:CcaF 100:1 to 20:1; 50 mM Tris-HCl pH 8.0, RT overnight; MALDI-TOF MS. The source says: To identify the position of each modification and characterize the final product, the leader peptide must be excised. To this end, we focused on the putative peptidase CcaF. The sequence of CcaF is annotated as a S8 (subtilisin type) serine protease and contains a classical Asp-His-Ser catalytic triad. Recombinant CcaF was heterologously expressed in E. coli BL21(DE3) and purified as a polyHis-tagged protein (Supplementary Fig. 7). […] Given the structural divergence amongst these modified peptides, CcaF appears to be a protease with a broad substrate scope.
The leader peptide was removed by protease CcaF. The reactions were performed in a 1.5 mL eppendorf tube with optimized ratio (100:1 to 20:1) of different substrates and CcaF in 50 mM Tris-HCl (pH =8.0) buffer at RT overnight. The substrates are different modified full length precursor peptide and synthetic 10-mer peptide. The reaction was monitored by MALDI-TOF MS, if the digestion was not completed, another 50:1 ratio CcaF protease was added and stay at RT for another 8 hours.

With DELSATAAAA [10-mer peptide], the “cleavage by protease CcaF” value was “digested at the expected position”.
